Data on eight molecules can be found in patent US9636418B2 (priority 2013, dated 2017).

What all share (test): cell-based
In assay [1] the target is hNav1.3 (Homo sapiens, UniProt Q9NY46). Particulars: IonWorks Quattro; read-out: IC50 Nav1.3.
The target of assay [2] is hNav1.7 (Homo sapiens, UniProt Q15858). Particulars: IonWorks Quattro; read-out: IC50 Nav1.7.
The target in assay [3] is hNav1.4 (Homo sapiens, UniProt P35499). The settings on record: for IC50: IonWorks Quattro, read-out: IC50 Nav1.4; for Nav1.4/Nav1.7: ratio of IonWorks Quattro IC50 values.
The target in assay [4] is hNav1.5 (Homo sapiens, UniProt Q14524). Particulars: IonWorks Quattro; read-out: IC50 Nav1.5. For orientation: The patch-clamp technique gives a direct electrical read-out from membranes.

Molecules are shown by their SMILES. “And” between values parts separate entries of the source, which are not always exact repeats. Identical values can stand only once.

hNav1.4, sequence (P35499 whole entry): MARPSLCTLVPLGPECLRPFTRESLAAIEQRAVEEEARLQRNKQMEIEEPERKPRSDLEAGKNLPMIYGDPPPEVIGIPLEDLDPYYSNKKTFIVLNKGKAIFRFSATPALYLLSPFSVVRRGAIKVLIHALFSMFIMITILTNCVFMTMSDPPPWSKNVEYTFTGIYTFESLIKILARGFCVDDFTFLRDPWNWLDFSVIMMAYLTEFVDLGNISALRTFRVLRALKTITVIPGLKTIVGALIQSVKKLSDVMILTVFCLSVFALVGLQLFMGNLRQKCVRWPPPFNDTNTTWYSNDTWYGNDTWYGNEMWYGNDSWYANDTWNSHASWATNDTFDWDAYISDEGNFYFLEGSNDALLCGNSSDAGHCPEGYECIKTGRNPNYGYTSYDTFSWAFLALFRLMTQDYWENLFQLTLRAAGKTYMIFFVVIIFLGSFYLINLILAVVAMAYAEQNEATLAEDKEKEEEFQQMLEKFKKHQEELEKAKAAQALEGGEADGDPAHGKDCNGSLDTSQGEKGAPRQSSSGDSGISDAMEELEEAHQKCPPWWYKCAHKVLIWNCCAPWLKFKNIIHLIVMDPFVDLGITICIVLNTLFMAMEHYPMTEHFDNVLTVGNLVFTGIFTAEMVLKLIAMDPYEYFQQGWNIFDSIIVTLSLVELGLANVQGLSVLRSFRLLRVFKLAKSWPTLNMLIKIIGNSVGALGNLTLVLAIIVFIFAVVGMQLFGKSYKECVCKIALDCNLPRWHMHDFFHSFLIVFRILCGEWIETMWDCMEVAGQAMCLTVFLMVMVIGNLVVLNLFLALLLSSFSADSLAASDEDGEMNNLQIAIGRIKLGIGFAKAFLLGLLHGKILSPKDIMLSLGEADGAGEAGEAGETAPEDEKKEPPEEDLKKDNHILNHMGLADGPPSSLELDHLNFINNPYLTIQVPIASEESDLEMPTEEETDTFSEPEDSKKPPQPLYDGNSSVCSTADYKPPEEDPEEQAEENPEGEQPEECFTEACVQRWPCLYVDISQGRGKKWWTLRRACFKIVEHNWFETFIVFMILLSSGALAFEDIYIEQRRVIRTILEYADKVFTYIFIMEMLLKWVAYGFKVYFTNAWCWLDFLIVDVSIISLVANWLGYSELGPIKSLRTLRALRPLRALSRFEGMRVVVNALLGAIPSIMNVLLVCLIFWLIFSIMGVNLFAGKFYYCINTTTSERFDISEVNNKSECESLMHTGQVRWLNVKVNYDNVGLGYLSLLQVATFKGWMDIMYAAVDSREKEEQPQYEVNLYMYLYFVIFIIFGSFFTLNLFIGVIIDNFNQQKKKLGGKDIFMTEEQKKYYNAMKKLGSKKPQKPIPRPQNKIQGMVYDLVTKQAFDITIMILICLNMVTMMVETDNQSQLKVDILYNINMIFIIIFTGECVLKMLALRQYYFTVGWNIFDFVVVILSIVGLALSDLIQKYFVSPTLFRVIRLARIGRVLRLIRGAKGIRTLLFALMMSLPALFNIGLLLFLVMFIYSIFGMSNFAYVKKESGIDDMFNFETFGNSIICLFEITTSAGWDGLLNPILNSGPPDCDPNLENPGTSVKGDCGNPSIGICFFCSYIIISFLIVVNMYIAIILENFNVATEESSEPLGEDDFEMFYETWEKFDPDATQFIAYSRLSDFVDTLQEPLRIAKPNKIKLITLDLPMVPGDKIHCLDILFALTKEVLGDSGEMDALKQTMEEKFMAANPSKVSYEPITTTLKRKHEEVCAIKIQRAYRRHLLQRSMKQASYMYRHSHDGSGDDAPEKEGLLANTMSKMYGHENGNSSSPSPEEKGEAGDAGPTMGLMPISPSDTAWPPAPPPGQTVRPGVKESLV
hNav1.3, sequence (Q9NY46 whole entry): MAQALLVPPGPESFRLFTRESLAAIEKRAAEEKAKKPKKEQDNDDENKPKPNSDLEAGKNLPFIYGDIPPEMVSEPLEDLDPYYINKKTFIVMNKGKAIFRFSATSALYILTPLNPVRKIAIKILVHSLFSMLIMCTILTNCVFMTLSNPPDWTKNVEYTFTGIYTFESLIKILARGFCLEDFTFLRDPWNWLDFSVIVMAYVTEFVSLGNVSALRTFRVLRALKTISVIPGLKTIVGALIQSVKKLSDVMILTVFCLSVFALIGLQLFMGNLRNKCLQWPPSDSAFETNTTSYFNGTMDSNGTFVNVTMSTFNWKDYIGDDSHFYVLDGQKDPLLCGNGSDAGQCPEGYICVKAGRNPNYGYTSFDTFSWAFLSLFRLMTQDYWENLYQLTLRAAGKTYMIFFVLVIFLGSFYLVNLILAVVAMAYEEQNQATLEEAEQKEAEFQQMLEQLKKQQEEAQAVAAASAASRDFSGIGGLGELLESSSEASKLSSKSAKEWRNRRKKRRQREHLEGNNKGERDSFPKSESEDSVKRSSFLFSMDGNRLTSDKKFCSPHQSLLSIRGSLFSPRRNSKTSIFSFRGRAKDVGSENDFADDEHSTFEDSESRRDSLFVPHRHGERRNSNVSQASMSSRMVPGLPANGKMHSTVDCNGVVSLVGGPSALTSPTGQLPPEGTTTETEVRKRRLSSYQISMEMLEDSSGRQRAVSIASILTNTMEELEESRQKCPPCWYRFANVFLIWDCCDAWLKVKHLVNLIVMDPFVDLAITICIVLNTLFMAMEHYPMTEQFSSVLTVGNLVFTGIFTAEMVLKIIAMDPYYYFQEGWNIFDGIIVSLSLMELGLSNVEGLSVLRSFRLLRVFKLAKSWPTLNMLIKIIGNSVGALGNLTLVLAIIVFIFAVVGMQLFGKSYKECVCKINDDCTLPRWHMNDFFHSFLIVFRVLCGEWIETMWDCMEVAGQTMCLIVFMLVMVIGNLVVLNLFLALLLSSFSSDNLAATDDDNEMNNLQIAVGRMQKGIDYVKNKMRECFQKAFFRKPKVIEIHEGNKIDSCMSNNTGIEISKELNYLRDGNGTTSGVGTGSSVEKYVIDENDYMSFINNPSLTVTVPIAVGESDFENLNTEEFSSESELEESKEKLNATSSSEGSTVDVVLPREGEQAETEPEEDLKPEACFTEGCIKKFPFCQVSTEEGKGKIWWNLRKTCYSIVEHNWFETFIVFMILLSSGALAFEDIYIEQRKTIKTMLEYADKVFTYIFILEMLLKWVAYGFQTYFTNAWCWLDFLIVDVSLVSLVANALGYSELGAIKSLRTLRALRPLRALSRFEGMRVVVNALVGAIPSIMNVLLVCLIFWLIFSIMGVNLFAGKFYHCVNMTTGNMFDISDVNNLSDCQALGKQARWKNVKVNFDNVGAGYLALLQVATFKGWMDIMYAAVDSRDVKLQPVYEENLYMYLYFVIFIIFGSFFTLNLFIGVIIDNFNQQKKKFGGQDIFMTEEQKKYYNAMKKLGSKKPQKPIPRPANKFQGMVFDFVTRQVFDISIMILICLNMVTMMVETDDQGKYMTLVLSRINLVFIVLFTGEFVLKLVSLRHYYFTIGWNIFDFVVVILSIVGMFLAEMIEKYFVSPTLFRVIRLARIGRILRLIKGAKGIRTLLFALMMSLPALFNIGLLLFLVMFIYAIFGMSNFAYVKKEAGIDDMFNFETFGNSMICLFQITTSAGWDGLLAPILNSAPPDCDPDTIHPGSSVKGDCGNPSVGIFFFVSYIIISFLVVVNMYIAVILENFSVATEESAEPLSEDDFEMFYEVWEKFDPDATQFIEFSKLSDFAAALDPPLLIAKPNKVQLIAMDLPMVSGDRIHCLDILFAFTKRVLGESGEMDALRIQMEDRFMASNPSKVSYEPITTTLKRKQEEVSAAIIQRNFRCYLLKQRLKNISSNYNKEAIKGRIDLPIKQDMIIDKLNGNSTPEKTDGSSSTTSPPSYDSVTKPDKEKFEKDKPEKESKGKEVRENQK

As a reminder, the IC50 is the concentration at which inhibition is half-maximal. Regarding `CC[C@H](C)[C@H](NC(=O)[C@H](CCC(=O)O)NC(=O)[C@H](CCCCN)NC(=O)[C@H](CCCNC(=N)N)NC(=O)[C@@H]1CSSC[C@@H]2NC(=O)[C@H](C)NC(=O)[C@H](CCCNC(=N)N)NC(=O)[C@H](CCCCN)NC(=O)[C@H](CO)NC(=O)[C@H](CC(=O)O)NC(=O)[C@@H]3CSSC[C@H](NC(=O)[C@H](CCC(=O)O)NC(=O)[C@H](CC(C)C)NC(=O)CNC(=O)[C@H](CCC(=O)O)NC(=O)[C@H](CSSC[C@H](NC(=O)[C@@H](N)Cc4ccc(O)cc4)C(=O)N[C@@H](CCC(N)=O)C(=O)N[C@@H](CCCCN)C(=O)N[C@@H](Cc4c[nH]c5ccccc45)C(=O)N[C@@H](CCSC)C(=O)N[C@@H](Cc4c[nH]c5ccccc45)C(=O)N[C@@H]([C@@H](C)O)C(=O)N3)NC2=O)C(=O)N[C@@H](CCCCN)C(=O)N[C@@H](CC(C)C)C(=O)N[C@@H](Cc2c[nH]c3ccccc23)C(=O)N1)C(N)=O` [compound 126], the IC50 in assay [1] is above 5 µM; in assay [2], 950 nM and 1440 nM; in assay [3], above 5 µM; in assay [4], 15.8 µM and 7.5 µM. Moreover, the Nav1.4/Nav1.7 in assay [3] is 5 and 3.

For `CC[C@H](C)[C@H](NC(=O)[C@H](Cc1ccc(C(=O)O)cc1)NC(=O)[C@H](CCCCN)NC(=O)[C@H](CCCNC(=N)N)NC(=O)[C@@H]1CSSC[C@@H]2NC(=O)[C@H](C)NC(=O)[C@H](CCCNC(=N)N)NC(=O)[C@H](CCCCN)NC(=O)[C@H](CO)NC(=O)[C@H](CC(=O)O)NC(=O)[C@@H]3CSSC[C@H](NC(=O)[C@H](CCC(=O)O)NC(=O)[C@H](CC(C)C)NC(=O)CNC(=O)[C@H](CCC(=O)O)NC(=O)[C@H](CSSC[C@H](NC(=O)[C@@H](N)Cc4ccc(O)cc4)C(=O)N[C@@H](CCC(N)=O)C(=O)N[C@@H](CCCCN)C(=O)N[C@@H](Cc4c[nH]c5ccccc45)C(=O)N[C@@H](CCSC)C(=O)N[C@@H](Cc4c[nH]c5ccccc45)C(=O)N[C@@H]([C@@H](C)O)C(=O)N3)NC2=O)C(=O)N[C@@H](CCCCN)C(=O)N[C@@H](CC(C)C)C(=O)N[C@@H](Cc2c[nH]c3ccccc23)C(=O)N1)C(N)=O` [compound 127], the IC50 in assay [1] was above 5 µM; in assay [2] it was 2350 nM; in assay [3], above 5 µM; in assay [4], 16.7 µM. The Nav1.4/Nav1.7 in assay [3] is listed as 2.

Take `CC[C@H](C)[C@H](NC(=O)[C@H](CC(=O)O)NC(=O)[C@H](CCCCN)NC(=O)[C@H](CCCNC(=N)N)NC(=O)[C@@H]1CSSC[C@@H]2NC(=O)[C@H](C)NC(=O)[C@H](CCCNC(=N)N)NC(=O)[C@H](CCCCN)NC(=O)[C@H](CO)NC(=O)[C@H](CC(=O)O)NC(=O)[C@@H]3CSSC[C@H](NC(=O)[C@H](CCC(=O)O)NC(=O)[C@H](CC(C)C)NC(=O)CNC(=O)[C@H](CCC(=O)O)NC(=O)[C@H](CSSC[C@H](NC(=O)[C@@H](N)Cc4ccc(O)cc4)C(=O)N[C@@H](CCC(N)=O)C(=O)N[C@@H](CCCCN)C(=O)N[C@@H](Cc4c[nH]c5ccccc45)C(=O)N[C@@H](CCSC)C(=O)N[C@@H](Cc4c[nH]c5ccccc45)C(=O)N[C@@H]([C@@H](C)O)C(=O)N3)NC2=O)C(=O)N[C@@H](CCCCN)C(=O)N[C@@H](CC(C)C)C(=O)N[C@@H](Cc2c[nH]c3ccccc23)C(=O)N1)C(N)=O` [compound 128]: the IC50 in assay [1] was above 5 µM; in assay [2], 1340 nM; in assay [3], above 5 µM; in assay [4], 13.9 µM. In assay [3], the Nav1.4/Nav1.7 was found to be 4.

Turning to `CC[C@H](C)[C@H](NC(=O)[C@H](CC(C)C)NC(=O)[C@H](CCCCN)NC(=O)[C@H](CCCNC(=N)N)NC(=O)[C@@H]1CSSC[C@@H]2NC(=O)[C@H](C)NC(=O)[C@H](CCCNC(=N)N)NC(=O)[C@H](CCCCN)NC(=O)[C@H](CO)NC(=O)[C@H](CC(=O)O)NC(=O)[C@@H]3CSSC[C@H](NC(=O)[C@H](CCC(=O)O)NC(=O)[C@H](CC(C)C)NC(=O)CNC(=O)[C@H](CCC(=O)O)NC(=O)[C@H](CSSC[C@H](NC(=O)[C@@H](N)Cc4ccc(O)cc4)C(=O)N[C@@H](CCC(N)=O)C(=O)N[C@@H](CCCCN)C(=O)N[C@@H](Cc4c[nH]c5ccccc45)C(=O)N[C@@H](CCSC)C(=O)N[C@@H](Cc4c[nH]c5ccccc45)C(=O)N[C@@H]([C@@H](C)O)C(=O)N3)NC2=O)C(=O)N[C@@H](CCCCN)C(=O)N[C@@H](CC(C)C)C(=O)N[C@@H](Cc2c[nH]c3ccccc23)C(=O)N1)C(N)=O` [compound 132], the half-inhibitory concentration (IC50) was above 5 µM in assay [1], 410 nM in assay [2], above 5 µM in assay [3] and 6.7 µM in assay [4]. For the same molecule, in assay [3], the Nav1.4/Nav1.7 is 12.

For `CC[C@H](C)[C@H](NC(=O)[C@@H](NC(=O)[C@H](CCCCN)NC(=O)[C@H](CCCNC(=N)N)NC(=O)[C@@H]1CSSC[C@@H]2NC(=O)[C@H](C)NC(=O)[C@H](CCCNC(=N)N)NC(=O)[C@H](CCCCN)NC(=O)[C@H](CO)NC(=O)[C@H](CC(=O)O)NC(=O)[C@@H]3CSSC[C@H](NC(=O)[C@H](CCC(=O)O)NC(=O)[C@H](CC(C)C)NC(=O)CNC(=O)[C@H](CCC(=O)O)NC(=O)[C@H](CSSC[C@H](NC(=O)[C@@H](N)Cc4cn(CCCOCCOCCOCCOCCOCCOCCOCCOCCOCCOCCN)nn4)C(=O)N[C@@H](CCC(N)=O)C(=O)N[C@@H](CCCCN)C(=O)N[C@@H](Cc4c[nH]c5ccccc45)C(=O)N[C@@H](CCSC)C(=O)N[C@@H](Cc4c[nH]c5ccccc45)C(=O)N[C@@H]([C@@H](C)O)C(=O)N3)NC2=O)C(=O)N[C@@H](CCCCN)C(=O)N[C@@H](CC(C)C)C(=O)N[C@@H](Cc2c[nH]c3ccccc23)C(=O)N1)[C@@H](C)CC)C(N)=O` [compound 165], the IC50 was above 5 µM in assay [1], 180 nM in assay [2], above 5 µM in assay [3] and 15.1 µM in assay [4]. Further, the Nav1.4/Nav1.7 in assay [3] is 28.

In the case of `CC[C@H](C)[C@H](NC(=O)[C@@H](NC(=O)[C@H](CCCCN)NC(=O)[C@H](CCCNC(=N)N)NC(=O)[C@@H]1CSSC[C@@H]2NC(=O)[C@H](C)NC(=O)[C@H](CCCNC(=N)N)NC(=O)[C@H](CCCCN)NC(=O)[C@H](CO)NC(=O)[C@H](CC(=O)O)NC(=O)[C@@H]3CSSC[C@H](NC(=O)[C@H](CCC(=O)O)NC(=O)[C@H](CC(C)C)NC(=O)CNC(=O)[C@H](Cc4cn(CCCOCCOCCOCCOCCOCCOCCOCCOCCOCCOCCN)nn4)NC(=O)[C@H](CSSC[C@H](NC(=O)[C@@H](N)Cc4ccc(O)cc4)C(=O)N[C@@H](CCC(N)=O)C(=O)N[C@@H](CCCCN)C(=O)N[C@@H](Cc4c[nH]c5ccccc45)C(=O)N[C@@H](CCSC)C(=O)N[C@@H](Cc4c[nH]c5ccccc45)C(=O)N[C@@H]([C@@H](C)O)C(=O)N3)NC2=O)C(=O)N[C@@H](CCCCN)C(=O)N[C@@H](CC(C)C)C(=O)N[C@@H](Cc2c[nH]c3ccccc23)C(=O)N1)[C@@H](C)CC)C(N)=O` [compound 178], the IC50 in assay [1] is above 5 µM; in assay [2], 180 nM; in assay [3] it was above 5 µM; in assay [4], 15.1 µM. The Nav1.4/Nav1.7 in assay [3] was found to be 28.

As to `CC[C@H](C)[C@H](NC(=O)[C@@H](NC(=O)[C@H](CCCCN)NC(=O)[C@H](CCCNC(=N)N)NC(=O)[C@@H]1CSSC[C@@H]2NC(=O)[C@H](C)NC(=O)[C@H](CCCNC(=N)N)NC(=O)[C@H](CCCCN)NC(=O)[C@H](CO)NC(=O)[C@H](CC(=O)O)NC(=O)[C@@H]3CSSC[C@H](NC(=O)[C@H](CCC(=O)O)NC(=O)[C@H](CC(C)C)NC(=O)CNC(=O)[C@H](CCC(=O)O)NC(=O)[C@H](CSSC[C@H](NC(=O)[C@@H](N)Cc4ccc(O)cc4)C(=O)N[C@@H](CCC(N)=O)C(=O)N[C@@H](CCCCN)C(=O)N[C@@H](Cc4c[nH]c5ccccc45)C(=O)N[C@@H](CCSC)C(=O)N[C@@H](Cc4c[nH]c5ccccc45)C(=O)N[C@@H]([C@@H](C)O)C(=O)N3)NC2=O)C(=O)N[C@@H](CCCCN)C(=O)N[C@@H](Cc2cn(CCCOCCOCCOCCOCCOCCOCCOCCOCCOCCOCCN)nn2)C(=O)N[C@@H](Cc2c[nH]c3ccccc23)C(=O)N1)[C@@H](C)CC)C(N)=O` [compound 183], the half-inhibitory concentration (IC50) was above 5 µM in assay [1], at least 5000 nM in assay [2], above 5 µM in assay [3] and 19.2 µM in assay [4]. For the same molecule, in assay [3], the Nav1.4/Nav1.7 came out at 1.

For `CC[C@H](C)[C@H](NC(=O)[C@H](Cc1cn(CCCOCCOCCOCCOCCOCCOCCOCCOCCOCCOCCN)nn1)NC(=O)[C@H](CCCCN)NC(=O)[C@H](CCCNC(=N)N)NC(=O)[C@@H]1CSSC[C@@H]2NC(=O)[C@H](C)NC(=O)[C@H](CCCNC(=N)N)NC(=O)[C@H](CCCCN)NC(=O)[C@H](CO)NC(=O)[C@H](CC(=O)O)NC(=O)[C@@H]3CSSC[C@H](NC(=O)[C@H](CCC(=O)O)NC(=O)[C@H](CC(C)C)NC(=O)CNC(=O)[C@H](CCC(=O)O)NC(=O)[C@H](CSSC[C@H](NC(=O)[C@@H](N)Cc4ccc(O)cc4)C(=O)N[C@@H](CCC(N)=O)C(=O)N[C@@H](CCCCN)C(=O)N[C@@H](Cc4c[nH]c5ccccc45)C(=O)N[C@@H](CCSC)C(=O)N[C@@H](Cc4c[nH]c5ccccc45)C(=O)N[C@@H]([C@@H](C)O)C(=O)N3)NC2=O)C(=O)N[C@@H](CCCCN)C(=O)N[C@@H](CC(C)C)C(=O)N[C@@H](Cc2c[nH]c3ccccc23)C(=O)N1)C(N)=O` [compound 187], the IC50 in assay [1] was above 5 µM; in assay [2], 1770 nM; in assay [3], above 5 µM; in assay [4], 15.4 µM. In assay [3], the Nav1.4/Nav1.7 is recorded as 3.
